Where “and” joins values, the source holds several entries; their conditions need not be identical. Equal entries are not always repeated.

Our source for the AC50 values is ChEMBL document CHEMBL5291721, “A preclinical secondary pharmacology resource illuminates target-adverse drug reaction associations of marketed drugs” (Nat Commun, 2023).

Among the targets are Vasopressin V1a receptor (Homo sapiens, UniProt P37288); Cannabinoid receptor 1 (Homo sapiens, UniProt P21554); Melanocortin receptor 4 (Homo sapiens, UniProt P32245); Mu-type opioid receptor (Homo sapiens, UniProt P35372).
The next assay has as its target T1, Adenosine receptor A1 (Homo sapiens, UniProt P30542).
T1 sequence (P30542 whole entry): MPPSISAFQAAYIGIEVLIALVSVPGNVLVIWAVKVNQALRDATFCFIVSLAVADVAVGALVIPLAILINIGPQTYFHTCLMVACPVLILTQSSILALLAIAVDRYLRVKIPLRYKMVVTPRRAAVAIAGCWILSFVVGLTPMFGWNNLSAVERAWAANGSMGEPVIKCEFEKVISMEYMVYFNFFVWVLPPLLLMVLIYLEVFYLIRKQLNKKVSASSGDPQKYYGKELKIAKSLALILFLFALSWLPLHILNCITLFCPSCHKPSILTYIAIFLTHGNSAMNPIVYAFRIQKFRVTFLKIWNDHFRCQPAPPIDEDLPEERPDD

Assay [1] has as its target T2, Alpha-2C adrenergic receptor (Homo sapiens, UniProt P18825).
T2 sequence (P18825 whole entry): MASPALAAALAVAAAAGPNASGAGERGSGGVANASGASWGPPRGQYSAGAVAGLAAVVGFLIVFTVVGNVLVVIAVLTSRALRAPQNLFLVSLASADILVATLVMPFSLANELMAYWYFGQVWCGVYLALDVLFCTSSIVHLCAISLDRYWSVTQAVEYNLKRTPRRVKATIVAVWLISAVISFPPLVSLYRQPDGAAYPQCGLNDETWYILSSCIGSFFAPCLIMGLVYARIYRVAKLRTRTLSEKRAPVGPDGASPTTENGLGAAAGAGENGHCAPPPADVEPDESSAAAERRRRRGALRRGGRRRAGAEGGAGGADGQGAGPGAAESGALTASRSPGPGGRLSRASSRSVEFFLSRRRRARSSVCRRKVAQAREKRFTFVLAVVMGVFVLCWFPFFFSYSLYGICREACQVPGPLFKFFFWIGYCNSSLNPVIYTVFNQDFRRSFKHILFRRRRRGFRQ
It counts as functional.

For assay [2], the target named is Neuronal acetylcholine receptor subunit alpha-4 (Homo sapiens, UniProt P43681).
For assay [3], the target named is Gamma-aminobutyric acid receptor subunit alpha-1 (Rattus norvegicus, UniProt P62813). It counts as functional.
In the next assay the target is Histamine H2 receptor (Homo sapiens, UniProt P25021). It counts as functional, cell-based.
Assay [4] has as its target T3, 5-hydroxytryptamine receptor 2C (Homo sapiens, UniProt P28335).
T3 sequence (P28335 whole entry): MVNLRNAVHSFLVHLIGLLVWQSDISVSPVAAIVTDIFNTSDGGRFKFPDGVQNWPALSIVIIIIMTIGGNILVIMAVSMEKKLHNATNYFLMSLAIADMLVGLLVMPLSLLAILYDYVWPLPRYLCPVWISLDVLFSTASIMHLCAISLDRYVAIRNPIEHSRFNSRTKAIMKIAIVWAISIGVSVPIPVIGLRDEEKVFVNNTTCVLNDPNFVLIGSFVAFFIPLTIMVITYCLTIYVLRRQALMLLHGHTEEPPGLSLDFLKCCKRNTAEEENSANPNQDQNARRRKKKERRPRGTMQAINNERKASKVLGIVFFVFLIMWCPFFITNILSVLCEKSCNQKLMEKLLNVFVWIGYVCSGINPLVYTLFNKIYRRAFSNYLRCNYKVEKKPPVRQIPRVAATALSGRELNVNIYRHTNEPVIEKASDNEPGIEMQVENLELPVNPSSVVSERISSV

Assay [5] deals with Delta-type opioid receptor (Homo sapiens, UniProt P41143).
For assay [6], the target named is T4, Alpha-1A adrenergic receptor (Homo sapiens, UniProt P35348).
T4 sequence (P35348 whole entry): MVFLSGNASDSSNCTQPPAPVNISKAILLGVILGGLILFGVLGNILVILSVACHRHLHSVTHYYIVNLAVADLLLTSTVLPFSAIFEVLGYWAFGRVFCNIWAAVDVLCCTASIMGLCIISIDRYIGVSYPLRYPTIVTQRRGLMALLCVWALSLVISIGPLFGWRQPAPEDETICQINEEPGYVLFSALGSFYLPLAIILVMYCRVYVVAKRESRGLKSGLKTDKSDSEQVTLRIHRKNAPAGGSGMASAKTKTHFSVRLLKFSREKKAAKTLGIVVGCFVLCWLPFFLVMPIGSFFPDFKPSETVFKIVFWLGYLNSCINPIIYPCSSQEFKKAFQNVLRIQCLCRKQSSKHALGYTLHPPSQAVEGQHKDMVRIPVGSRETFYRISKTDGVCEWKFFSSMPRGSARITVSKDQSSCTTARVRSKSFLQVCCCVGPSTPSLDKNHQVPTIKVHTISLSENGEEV
In kind it is functional, cell-based.
Note: assay procedure not described here.

Sequence of Delta-type opioid receptor (P41143 whole entry): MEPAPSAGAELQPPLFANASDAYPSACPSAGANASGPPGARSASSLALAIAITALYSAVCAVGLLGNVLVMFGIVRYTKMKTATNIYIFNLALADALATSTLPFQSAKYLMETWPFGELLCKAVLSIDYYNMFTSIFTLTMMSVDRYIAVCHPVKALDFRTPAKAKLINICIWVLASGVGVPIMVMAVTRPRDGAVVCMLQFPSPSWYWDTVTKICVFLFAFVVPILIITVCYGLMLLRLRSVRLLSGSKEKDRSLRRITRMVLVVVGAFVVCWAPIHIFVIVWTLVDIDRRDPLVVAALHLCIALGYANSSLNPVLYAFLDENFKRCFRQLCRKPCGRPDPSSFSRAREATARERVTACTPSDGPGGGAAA
Sequence of Mu-type opioid receptor (P35372 whole entry): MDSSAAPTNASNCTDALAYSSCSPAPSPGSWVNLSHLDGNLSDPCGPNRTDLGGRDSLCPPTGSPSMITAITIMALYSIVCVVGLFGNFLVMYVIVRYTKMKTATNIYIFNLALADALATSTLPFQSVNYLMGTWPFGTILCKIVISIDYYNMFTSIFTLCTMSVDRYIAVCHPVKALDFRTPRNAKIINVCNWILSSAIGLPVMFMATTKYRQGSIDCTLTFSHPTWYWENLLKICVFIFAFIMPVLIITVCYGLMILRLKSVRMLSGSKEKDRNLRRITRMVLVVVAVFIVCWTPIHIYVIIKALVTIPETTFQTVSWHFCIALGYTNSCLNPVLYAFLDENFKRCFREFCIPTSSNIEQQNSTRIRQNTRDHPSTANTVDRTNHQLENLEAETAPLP
Sequence of Cannabinoid receptor 1 (P21554 whole entry): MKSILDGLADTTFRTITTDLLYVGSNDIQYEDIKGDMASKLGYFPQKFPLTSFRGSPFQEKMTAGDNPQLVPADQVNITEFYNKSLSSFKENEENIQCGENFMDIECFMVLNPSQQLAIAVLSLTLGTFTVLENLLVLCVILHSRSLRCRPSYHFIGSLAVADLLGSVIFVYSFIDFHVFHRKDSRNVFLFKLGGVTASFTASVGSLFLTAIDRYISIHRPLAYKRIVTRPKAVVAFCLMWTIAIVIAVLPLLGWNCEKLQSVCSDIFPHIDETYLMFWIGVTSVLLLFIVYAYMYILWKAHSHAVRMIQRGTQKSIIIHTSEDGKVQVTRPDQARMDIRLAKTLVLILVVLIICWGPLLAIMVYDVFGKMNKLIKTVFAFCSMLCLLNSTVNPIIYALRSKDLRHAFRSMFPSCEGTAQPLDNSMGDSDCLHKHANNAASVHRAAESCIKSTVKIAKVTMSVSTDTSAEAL
Sequence of Gamma-aminobutyric acid receptor subunit alpha-1 (P62813 whole entry): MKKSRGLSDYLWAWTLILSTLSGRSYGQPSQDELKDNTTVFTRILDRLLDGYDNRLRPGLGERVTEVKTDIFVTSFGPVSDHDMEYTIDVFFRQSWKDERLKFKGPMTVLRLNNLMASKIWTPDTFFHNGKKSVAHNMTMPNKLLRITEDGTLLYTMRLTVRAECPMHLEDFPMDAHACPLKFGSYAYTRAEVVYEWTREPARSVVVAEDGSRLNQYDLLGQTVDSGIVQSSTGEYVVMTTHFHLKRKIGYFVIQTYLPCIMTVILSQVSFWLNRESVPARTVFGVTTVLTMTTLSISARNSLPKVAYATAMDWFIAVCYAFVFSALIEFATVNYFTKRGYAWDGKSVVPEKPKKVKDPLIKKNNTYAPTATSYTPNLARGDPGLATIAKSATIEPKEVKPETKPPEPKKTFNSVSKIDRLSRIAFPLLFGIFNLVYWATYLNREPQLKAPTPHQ
Sequence of Melanocortin receptor 4 (P32245 whole entry): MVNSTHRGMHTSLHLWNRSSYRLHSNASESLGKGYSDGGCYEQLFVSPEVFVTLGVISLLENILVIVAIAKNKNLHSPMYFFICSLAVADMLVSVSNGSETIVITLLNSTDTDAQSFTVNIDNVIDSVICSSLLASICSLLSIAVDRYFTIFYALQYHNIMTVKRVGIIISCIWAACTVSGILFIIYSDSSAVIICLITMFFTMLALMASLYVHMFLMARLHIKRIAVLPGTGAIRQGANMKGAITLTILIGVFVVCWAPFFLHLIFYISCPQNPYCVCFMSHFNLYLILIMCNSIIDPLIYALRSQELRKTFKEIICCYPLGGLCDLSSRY
Sequence of Neuronal acetylcholine receptor subunit alpha-4 (P43681 whole entry): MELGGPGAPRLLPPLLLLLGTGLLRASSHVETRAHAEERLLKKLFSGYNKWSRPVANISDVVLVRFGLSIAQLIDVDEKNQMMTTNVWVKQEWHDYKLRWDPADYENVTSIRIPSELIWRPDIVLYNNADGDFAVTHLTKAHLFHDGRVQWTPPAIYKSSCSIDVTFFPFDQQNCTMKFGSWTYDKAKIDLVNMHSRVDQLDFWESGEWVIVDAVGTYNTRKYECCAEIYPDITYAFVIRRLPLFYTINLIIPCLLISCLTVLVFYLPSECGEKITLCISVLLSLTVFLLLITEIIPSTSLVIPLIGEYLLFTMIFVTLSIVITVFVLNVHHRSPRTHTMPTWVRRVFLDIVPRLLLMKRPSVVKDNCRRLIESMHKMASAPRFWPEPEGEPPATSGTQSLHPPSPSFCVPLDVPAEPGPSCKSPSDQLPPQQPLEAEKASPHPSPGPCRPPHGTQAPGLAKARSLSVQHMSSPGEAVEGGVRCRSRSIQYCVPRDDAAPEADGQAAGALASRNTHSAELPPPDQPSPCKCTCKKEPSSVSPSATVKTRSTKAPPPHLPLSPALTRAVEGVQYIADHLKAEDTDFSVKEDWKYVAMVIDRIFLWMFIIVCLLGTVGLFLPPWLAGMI
Sequence of Histamine H2 receptor (P25021 whole entry): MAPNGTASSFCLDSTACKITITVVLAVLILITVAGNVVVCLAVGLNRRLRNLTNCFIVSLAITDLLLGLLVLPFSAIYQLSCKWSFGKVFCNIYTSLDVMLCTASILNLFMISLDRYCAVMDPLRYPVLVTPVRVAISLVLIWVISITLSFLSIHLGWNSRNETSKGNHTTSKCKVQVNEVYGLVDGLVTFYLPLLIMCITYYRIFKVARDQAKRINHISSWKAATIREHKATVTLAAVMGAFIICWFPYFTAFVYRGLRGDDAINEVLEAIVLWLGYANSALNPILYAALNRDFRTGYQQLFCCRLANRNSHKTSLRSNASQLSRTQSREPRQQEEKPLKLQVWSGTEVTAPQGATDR
Sequence of Vasopressin V1a receptor (P37288 whole entry): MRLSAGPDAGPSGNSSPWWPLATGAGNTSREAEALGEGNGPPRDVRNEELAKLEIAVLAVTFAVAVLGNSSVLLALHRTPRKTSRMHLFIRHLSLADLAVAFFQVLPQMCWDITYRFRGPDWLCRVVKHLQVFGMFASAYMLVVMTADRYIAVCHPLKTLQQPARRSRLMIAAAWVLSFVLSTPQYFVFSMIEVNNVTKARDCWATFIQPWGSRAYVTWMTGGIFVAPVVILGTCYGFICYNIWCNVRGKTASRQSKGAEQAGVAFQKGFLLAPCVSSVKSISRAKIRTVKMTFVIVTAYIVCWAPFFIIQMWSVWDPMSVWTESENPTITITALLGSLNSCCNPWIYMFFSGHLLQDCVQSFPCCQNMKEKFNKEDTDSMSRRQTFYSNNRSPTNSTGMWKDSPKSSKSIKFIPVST

For orientation: AC50 means the midpoint of the concentration-response curve, whichever way the signal moves. A low value points to greater potency. Regarding `CC(NCCc1ccc(O)cc1)C(O)c1ccc(O)cc1` (stereo not given) [RITODRINE], the AC50 (at Adenosine receptor A1; in assay [1]; on Vasopressin V1a receptor; in assay [2]; on Cannabinoid receptor 1; in assay [3]) was > 30 µM in each case. Moreover, the AC50 on Histamine H2 receptor was > 30 µM; in assay [4], > 30 µM; on Melanocortin receptor 4, > 10 µM; in [5], > 30 µM; at Mu-type opioid receptor, 13 µM and 9.2 µM; in [6] it was 2 µM.

With `CC(C)CC(N(C)C)C1(c2ccc(Cl)cc2)CCC1` (stereo not given) [SIBUTRAMINE], the AC50 at Adenosine receptor A1 was > 30 µM; in assay [1] it was 3.8 µM; on Vasopressin V1a receptor, > 10 µM; in assay [2], > 10 µM; at Cannabinoid receptor 1 it was > 10 µM; in assay [3], > 10 µM. In addition, the AC50 at Histamine H2 receptor was > 10 µM; in [4] it was > 30 µM; on Melanocortin receptor 4, > 30 µM; in assay [5], > 30 µM; at Mu-type opioid receptor, > 30 µM; in assay [6] it was > 30 µM.

With `[H]/N=C(/N)N[C@H]1[C@H](O)[C@@H](O)[C@H](O[C@@H]2O[C@@H](C)[C@](O)(C=O)[C@H]2O[C@@H]2O[C@@H](CO)[C@H](O)[C@@H](O)[C@@H]2NC)[C@@H](N/C(N)=N\[H])[C@@H]1O` [STREPTOMYCIN], the AC50 (on Adenosine receptor A1; in assay [1]; at Vasopressin V1a receptor; in assay [2]; at Cannabinoid receptor 1; in assay [3]) was > 30 µM each time. The AC50 on Histamine H2 receptor is > 30 µM; in assay [4] it was > 30 µM; on Melanocortin receptor 4, > 30 µM; in assay [5] it was > 30 µM; on Mu-type opioid receptor, > 10 µM; in assay [6], > 30 µM.

As for `C=CC(N)CCC(=O)O` (stereo not given) [VIGABATRIN], the AC50 (at Adenosine receptor A1; in [1]; on Vasopressin V1a receptor; in [2]; at Cannabinoid receptor 1; in assay [3]) was > 10 µM throughout. For the same molecule, the AC50 on Histamine H2 receptor was > 10 µM; in [4] it was > 30 µM; on Melanocortin receptor 4, > 10 µM; in [5] it was > 30 µM; at Mu-type opioid receptor, > 30 µM; in assay [6], > 30 µM.

For `N#C[C@@H]1CCCN1C(=O)CNC12CC3CC(CC(O)(C3)C1)C2` [VILDAGLIPTIN], the half-maximal activity concentration (AC50) on Adenosine receptor A1 is > 30 µM; in assay [1], > 30 µM; on Vasopressin V1a receptor it was > 30 µM; in assay [2], > 10 µM; at Cannabinoid receptor 1, > 30 µM; in assay [3] it was > 30 µM. The AC50 on Histamine H2 receptor was > 30 µM; in [4] it was > 30 µM; on Melanocortin receptor 4, > 30 µM; in assay [5] it was > 30 µM; at Mu-type opioid receptor it was > 10 µM; in [6], > 30 µM.
